# Reference: US7939288B2, “Method for differentiating between factor XIII deficiency states and fibrinogen deficiency states by means of thrombelastographic techniques” (CSL Behring GmbH, priority 2005, dated 2011)
# Target: T1, factor XIII (Homo sapiens, UniProt P00488)
# T1 construct: The test batch contained: 200 μl of plasma; from tissue; host or cells: standard human plasma
# T1 sequence (P00488 39-732 limits assumed): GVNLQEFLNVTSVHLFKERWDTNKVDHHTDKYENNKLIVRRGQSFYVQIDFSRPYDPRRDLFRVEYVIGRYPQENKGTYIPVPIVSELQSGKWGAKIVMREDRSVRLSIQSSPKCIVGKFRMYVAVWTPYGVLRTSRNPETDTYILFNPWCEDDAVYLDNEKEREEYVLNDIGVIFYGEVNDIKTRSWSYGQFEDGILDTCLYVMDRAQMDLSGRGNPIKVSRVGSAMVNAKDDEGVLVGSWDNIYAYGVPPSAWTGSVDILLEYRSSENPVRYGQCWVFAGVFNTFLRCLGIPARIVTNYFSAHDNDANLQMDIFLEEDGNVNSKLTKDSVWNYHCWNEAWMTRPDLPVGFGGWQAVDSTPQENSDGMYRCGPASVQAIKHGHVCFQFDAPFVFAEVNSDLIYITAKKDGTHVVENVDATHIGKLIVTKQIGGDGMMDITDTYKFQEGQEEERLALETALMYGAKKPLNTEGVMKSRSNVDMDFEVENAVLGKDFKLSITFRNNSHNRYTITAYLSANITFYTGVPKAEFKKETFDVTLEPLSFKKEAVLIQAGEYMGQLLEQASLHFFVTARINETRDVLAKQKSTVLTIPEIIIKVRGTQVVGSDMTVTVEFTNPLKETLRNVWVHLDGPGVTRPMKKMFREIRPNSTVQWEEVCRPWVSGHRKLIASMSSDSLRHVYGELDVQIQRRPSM
# Test: TEG of standard human plasma with low molecular weight factor XIII inhibitors, clotting started by tissue factor reagent (Thromborel S)
# Assay type: biochemical
# Experimental: For the quantitative determination of the influence of factor XIII, standard human plasma with or without addition of low molecular weight factor XIII inhibitors was analysed by means of TEG. The clotting reaction was started or accelerated by addition of a tissue factor reagent. The test batch contained: 200 μl of plasma, 30 μl of NaCl soln (control) or inhibitor solution in different dilutions, 50 μl of tissue factor reagent. (Thromborel S, Dade Behring) and 20 μl of calcium chloride solution (200 mmol/l). The reagents were pipetted into the cup at 37° C. and the TEG measurement was started with Haemoscope apparatuses. Alternatively, the calcium chloride can also be already added to the tissue factor reagent and the reaction thus started. The measurement parameters of reaction time (R), alpha angle, maximum amplitude (MA) and time to achieve the maximum amplitude (MA) were determined and evaluated. […] The investigations carried out here with plasma are in principle also applicable to whole blood.
# [1] = concentration in the test 0.033 μg/ml, Table 3
# [2] = concentration in the test 0.10 μg/ml, Table 3
# [3] = concentration in the test 0.33 μg/ml, Table 3
# [4] = concentration in the test 1.00 μg/ml, Table 3
# [5] = concentration in the test 3.33 μg/ml, Table 3
# [6] = concentration in the test 1.07 μg/ml, standard human plasma
# [7] = concentration in the test 1.071 μg/ml (so in the source), standard human plasma
# [8] = concentration in the test 3.21 μg/ml, standard human plasma
# [9] = concentration in the test 3.214 μg/ml (so in the source), standard human plasma
# [10] = concentration in the test 10.7 μg/ml, standard human plasma
# [11] = concentration in the test 32.1 μg/ml, standard human plasma
# [12] = concentration in the test 107 μg/ml, standard human plasma
# [13] = concentration in the test 321 μg/ml, standard human plasma
# [14] = concentration in the test 0.32 μg/ml, standard human plasma
# [15] = concentration in the test 107 μg/ml, standard human plasma, 107 µg/ml in the test
# [16] = concentration in the test 321 μg/ml, standard human plasma, 321 µg/ml in the test
# [17] = concentration in the test 536 μg/ml, standard human plasma, 536 µg/ml in the test
compound,measurement,setting,value
"CC(=O)CSc1n(C)c(C)c(C)[n+]1C.[Cl-] [1,3,4,5-tetramethyl-2-[(2-oxopropyl)thio]imidazolium chloride]",MA,concentration in the test 0.033 μg/ml,21.5 mm
same,Angle,[1],79.6 °
same,R,[1],22.5 s
same,TMA,[1],177.5 s
same,MA,concentration in the test 0.10 μg/ml,18.5 mm
same,Angle,[2],79.0 °
same,R,[2],22.5 s
same,TMA,[2],140.0 s
same,MA,concentration in the test 0.33 μg/ml,14.9 mm
same,Angle,[3],77.0 °
same,R,[3],22.5 s
same,TMA,[3],77.5 s
same,MA,concentration in the test 1.00 μg/ml,13.1 mm
same,Angle,[4],75.4 °
same,R,[4],22.5 s
same,TMA,[4],77.5 s
same,MA,concentration in the test 3.33 μg/ml,12.4 mm
same,Angle,[5],74.0 °
same,R,[5],22.5 s
same,TMA,[5],77.5 s
NCCc1c[nH]cn1 [Histamine],Angle,[6],73.4 °
same,MA,[6],17.8 mm
same,R,[6],20.0 s
same,TMA,[6],592.5 s
same,Angle,[7],70.3 °
same,MA,[7],14.0 mm
same,R,[7],15.0 s
same,TMA,[7],492.5 s
same,Angle,[8],75.0 °
same,MA,[8],17.9 mm
same,R,[8],22.5 s
same,TMA,[8],527.5 s
same,Angle,[9],71.9 °
same,MA,[9],13.0 mm
same,R,[9],25.0 s
same,TMA,[9],182.5 s
same,Angle,[10],74.8 °
same,MA,[10],19.2 mm
same,R,[10],20.0 s
same,TMA,[10],622.5 s
same,Angle,[11],73.9 °
same,MA,[11],17.2 mm
same,R,[11],22.0 s
same,TMA,[11],472.5 s
same,Angle,[12],73.5 °
same,MA,[12],16.9 mm
same,R,[12],17.5 s
same,TMA,[12],462.5 s
same,Angle,[13],72.7 °
same,MA,[13],15.5 mm
same,R,[13],20.0 s
same,TMA,[13],430.0 s
CN(C)c1cccc2c(S(=O)(=O)NCCCCCN)cccc12 [Monodansylcadaverine],Angle,[14],74.0 °
same,MA,[14],18.1 mm
same,R,[14],20.0 s
same,TMA,[14],655.0 s
same,Angle,[6],74.9 °
same,MA,[6],18.4 mm
same,R,[6],22.5 s
same,TMA,[6],610.0 s
same,Angle,[8],74.7 °
same,MA,[8],19.1 mm
same,R,[8],20.0 s
same,TMA,[8],657.5 s
same,Angle,[10],74.4 °
same,MA,[10],18.4 mm
same,R,[10],25.0 s
same,TMA,[10],560.0 s
same,Angle,[11],74.4 °
same,MA,[11],17.3 mm
same,R,[11],17.5 s
same,TMA,[11],562.5 s
same,Angle,[15],76.9 °
same,MA,[15],18.7 mm
same,R,[15],32.5 s
same,TMA,[15],237.5 s
same,Angle,[16],71.0 °
same,MA,[16],15.1 mm
same,R,[16],20.0 s
same,TMA,[16],490.0 s
same,Angle,[17],70.3 °
same,MA,[17],13.3 mm
same,R,[17],27.5 s
same,TMA,[17],370.0 s
NCCCCN [Putrescine],Angle,[6],73.1 °
same,MA,[6],17.2 mm
same,R,[6],22.5 s
same,TMA,[6],452.5 s
same,Angle,[7],69.5 °
same,MA,[7],13.6 mm
same,R,[7],25 s
same,TMA,[7],405.0 s
same,Angle,[8],73.7 °
same,MA,[8],15.9 mm
same,R,[8],17.5 s
same,TMA,[8],277.5 s
same,Angle,[9],72.6 °
same,MA,[9],13.9 mm
same,R,[9],32.5 s
same,TMA,[9],327.5 s
same,Angle,[10],73.4 °
same,MA,[10],18.7 mm
same,R,[10],20.0 s
same,TMA,[10],672.5 s
same,Angle,[11],73.0 °
same,MA,[11],16.9 mm
same,R,[11],25 s
same,TMA,[11],585.0 s
same,Angle,[12],73.0 °
same,MA,[12],16.5 mm
same,R,[12],15 s
same,TMA,[12],505.0 s
same,Angle,[13],72.8 °
same,MA,[13],15.8 mm
same,R,[13],20 s
same,TMA,[13],400.0 s
